“Also recorded” adds a separate entry of the source. Each block holds one molecule with its values, some of them ahead of it.
Assays:
D2SR/NTS1R = target: T1, D2SR/NTS1R (Homo sapiens, UniProt P14416+P30989); experiment: cAMP BRET assay (CAMYEL biosensor), HEK 293 T cells coexpressing D2SR and NTS1R; type: cell-based; settings: for Emax: HEK-293T, read-out: Effect (Emax) D2SR/NTS1R, cAMP accumulation
T1 construct: expressed in transfected cells; host or cells: HEK 293 T
Method: (§1) 24 h post-transfection cells were seeded into white half-area 96-well plates at 2.0 × 10^4 cells per well and grown overnight. On the following day phenol red free medium was removed and replaced by PBS and cells were serum starved for 1 h before treatment. The assay was started by adding 10 μl coelenterazine-h (Promega, Mannheim, Germany) to each well to yield a final concentration of 5 μM. After 5 min incubation, compounds were added in PBS containing 50 μM forskolin (final concentration 10 μM). Reads of the plates started 15 min after agonist addition. BRET readings were collected using a CLARIOstar plate reader (BMG LabTech, Ortenberg, Germany). […] Curves were normalized to basal BRET ratio obtained from dPBS (0%) and the effect of 10 μM forskolin (100%).

hD3R = target: T2, hD3R (Homo sapiens, UniProt P35462); experiment: [3H]spiperone displacement, membranes from CHO cells stably expressing hD3R; type: binding
T2 construct: expressed in transfected cells

hD2SR = target: T3, hD2SR (Homo sapiens, UniProt P14416); experiment: [3H]spiperone displacement, membranes from CHO cells stably expressing hD2SR; type: binding
T3 construct: expressed in transfected cells
From the text: (§2) In brief, competition binding experiments with the human D2LR, D2SR38, D3R39, and D4.4R40 receptors were perfomed using preparations of membranes from CHO cells stably expressing the corresponding receptor together with
(§3) the D2LR, D2SR, D3R, and D4.4R receptors, respectively. Homogenates from CHO cells stably expressing the human NTS1R (cDNA purchased from Missouri S&T cDNA Resource Center (UMR), Rolla, MO) at
(§4) 1; PerkinElmer, Rodgau, Germany). Human NTS2R binding was achieved using homogenates from HEK
(§5) method41. Membranes were incubated at a final concentration of 4 µg per well with Bmax values of 350-
(§6) Freiburg, Germany). Unspecific binding was determined in the presence of haloperidol (10 µM for D2LR-
(§7) Protein concentration was established by the method of Lowry using bovine serum albumin as standard42.

NTS1R [1] = target: T4, NTS1R (Homo sapiens, UniProt P30989); experiment: cAMP BRET assay (CAMYEL biosensor), HEK 293 T cells expressing NTS1R; type: cell-based; parameters: expressed in transfected cells; host or cells: HEK 293 T
Method: as §1

D2SR = target: T5, D2SR (Homo sapiens, UniProt P14416); experiment: cAMP BRET assay (CAMYEL biosensor), HEK 293 T cells expressing D2SR; type: cell-based
T5 construct: expressed in transfected cells; host or cells: HEK 293 T
Method: as §1

hD2LR = target: T6, hD2LR (Homo sapiens, UniProt P14416); experiment: [3H]spiperone displacement, membranes from CHO cells stably expressing hD2LR; type: binding
T6 construct: expressed in transfected cells

NTS1R [2] = target: T4, NTS1R; experiment: radioligand displacement, homogenates from CHO cells stably expressing human NTS1R; type: binding; settings: [3H]NT, mean ± s.d.
From the text: as §2, §3, §4, §5, §6, §7

human D2LR = target: T7, human D2LR (Homo sapiens, UniProt P14416); experiment: [3H]spiperone displacement, membranes from HEK 293 T cells transiently transfected with D2LR; type: binding; settings: D2LR monoexpression; mean ± s.e.m.
T7 construct: host or cells: HEK 293 T
Method: (§8) Receptor-binding studies were carried out in analogy to a previously described method[53]. […] Protein concentration was established by the method of Lowry using bovine serum albumin as standard[54].
(§9) The resulting competition curves of the receptor-binding experiments were analysed by nonlinear regression using the algorithms in PRISM 6.0 (GraphPad Software, San Diego, CA). For each individual experiment, the data were fitted using a monophasic competition model to provide an IC50 value, which was then transformed into a Ki value according to the equation of Cheng and Prusoff[55].

hNTS2R = target: T8, hNTS2R (Homo sapiens, UniProt O95665); experiment: [3H]NT(8-13) displacement, homogenates from transiently transfected HEK 293T cells, human NTS2R; type: binding
T8 construct: host or cells: HEK 293T
From the text: as §2, §3, §4, §5, §6, §7

D2R_D80A/NTS1R [3] = target: T9, D2R_D80A/NTS1R (Homo sapiens, UniProt P14416+P30989, D80A); experiment: cAMP accumulation, cells coexpressing signalling incompetent D2R (D80A) and NTS1R; type: cell-based
T9 construct: host or cells: HEK 293 stably expressing EA-tagged β-arrestin-2
Method: as §1
inhibit cAMP accumulation.
Data represent mean ± s.e.m.
of 3 independent experiments, each performed in triplicate.

D2R_D80A/NTS1R [4] = target: T9, D2R_D80A/NTS1R; experiment: β-arrestin-2 recruitment (DiscoveRx PathHunter), ProLink-tagged signalling incompetent D2R_D80A coexpressed with NTS1R; type: cell-based
Method: (§10) The measurement of β-arrestin-2 recruitment stimulated by receptor activation was performed by utilizing the PathHunter assay purchased from DiscoveRx (Birmingham, UK) according to the manufacturer's protocol. […] Dose–response curves were calculated by nonlinear regression using the algorithms of PRISM 6.0. Control experiments were performed using the same approach and transfection of ProLink(PK1)-tagged PAR2 together with wild-type NTS1R. […] Resulting responses were then normalized to the effect of the PAR2 agonist f-LIGRLO-NH2.

D2R = target: T10, D2R (Homo sapiens, UniProt P14416); experiment: Antagonist effect on quinpirole-mediated inhibition of cAMP accumulation, HEK 293T cells expressing D2R; type: cell-based; settings: 10 nM quinpirole
T10 construct: expressed in transfected cells; host or cells: HEK 293 T
Method: as §1

D2LR/NTS1R = D2LR/NTS1R (Homo sapiens, UniProt P14416+P30989); experiment: [3H]spiperone displacement, membranes from HEK 293 T cells coexpressing D2LR and NTS1R
Method: as §8, §9

hD4.4R = target: T11, hD4.4R (Homo sapiens, UniProt P21917); experiment: [3H]spiperone displacement, membranes from CHO cells stably expressing hD4.4R; type: binding
T11 construct: expressed in transfected cells
T11 sequence (P21917 1-419): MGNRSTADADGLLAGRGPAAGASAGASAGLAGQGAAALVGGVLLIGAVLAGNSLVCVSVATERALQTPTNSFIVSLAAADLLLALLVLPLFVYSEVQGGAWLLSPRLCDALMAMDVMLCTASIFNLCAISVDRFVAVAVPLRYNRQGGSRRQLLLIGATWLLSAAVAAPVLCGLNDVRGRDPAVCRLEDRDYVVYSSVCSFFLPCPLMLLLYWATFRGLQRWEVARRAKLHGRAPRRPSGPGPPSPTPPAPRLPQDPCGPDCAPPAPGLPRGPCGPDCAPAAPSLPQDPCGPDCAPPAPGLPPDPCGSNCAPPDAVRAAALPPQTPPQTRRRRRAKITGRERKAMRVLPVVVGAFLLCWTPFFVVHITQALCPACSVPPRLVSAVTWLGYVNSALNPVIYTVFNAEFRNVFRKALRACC
From the text: as §2, §3, §4, §5, §6, §7

D2R/NTS1R = target: T12, D2R/NTS1R (Homo sapiens, UniProt P14416+P30989); experiment: β-arrestin-2 recruitment (DiscoveRx PathHunter), HEK 293 cells with ProLink-tagged D2R and NTS1R; type: cell-based; settings: D2R/NTS1R-coexpressing cells
T12 construct: host or cells: HEK 293 stably expressing EA-tagged β-arrestin-2
T12 sequence (P14416 1-414 isoform P14416-2): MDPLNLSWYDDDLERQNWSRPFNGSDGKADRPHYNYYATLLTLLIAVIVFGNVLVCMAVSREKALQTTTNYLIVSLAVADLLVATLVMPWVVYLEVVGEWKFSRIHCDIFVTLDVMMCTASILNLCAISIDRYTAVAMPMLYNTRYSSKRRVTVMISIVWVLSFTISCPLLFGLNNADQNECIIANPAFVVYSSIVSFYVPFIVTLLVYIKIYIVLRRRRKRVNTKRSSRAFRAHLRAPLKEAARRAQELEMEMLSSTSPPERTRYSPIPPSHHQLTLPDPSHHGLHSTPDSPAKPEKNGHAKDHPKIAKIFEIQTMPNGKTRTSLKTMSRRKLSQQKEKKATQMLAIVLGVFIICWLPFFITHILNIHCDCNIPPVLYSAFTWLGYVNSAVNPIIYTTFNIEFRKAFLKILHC
T12 sequence (P30989 whole entry): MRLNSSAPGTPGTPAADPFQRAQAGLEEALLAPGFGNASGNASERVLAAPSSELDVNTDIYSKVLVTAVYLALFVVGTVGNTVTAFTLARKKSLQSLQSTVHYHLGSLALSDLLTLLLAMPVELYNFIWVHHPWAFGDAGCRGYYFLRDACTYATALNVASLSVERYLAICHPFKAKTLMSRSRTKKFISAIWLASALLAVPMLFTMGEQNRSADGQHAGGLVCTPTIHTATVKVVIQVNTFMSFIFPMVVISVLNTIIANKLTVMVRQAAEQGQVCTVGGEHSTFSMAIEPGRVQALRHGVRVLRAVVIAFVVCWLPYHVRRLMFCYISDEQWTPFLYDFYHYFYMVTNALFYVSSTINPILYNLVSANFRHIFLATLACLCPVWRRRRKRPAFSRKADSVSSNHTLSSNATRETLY
Method: as §10

Sequence of D2LR/NTS1R (P14416 whole entry): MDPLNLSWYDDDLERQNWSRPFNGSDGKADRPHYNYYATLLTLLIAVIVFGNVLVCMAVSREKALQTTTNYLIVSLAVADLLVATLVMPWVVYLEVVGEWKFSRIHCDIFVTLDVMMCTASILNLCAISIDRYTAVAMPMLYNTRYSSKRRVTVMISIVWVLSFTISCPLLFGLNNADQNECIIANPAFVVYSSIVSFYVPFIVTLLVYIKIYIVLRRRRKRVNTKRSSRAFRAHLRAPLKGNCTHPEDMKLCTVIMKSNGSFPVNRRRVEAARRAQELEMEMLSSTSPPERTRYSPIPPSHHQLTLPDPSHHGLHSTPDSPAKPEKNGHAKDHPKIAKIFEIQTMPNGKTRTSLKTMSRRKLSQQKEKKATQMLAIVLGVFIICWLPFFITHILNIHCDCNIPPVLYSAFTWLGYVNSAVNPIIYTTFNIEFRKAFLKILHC
Sequence of D2LR/NTS1R (P30989 whole entry): as the sequence (P30989 whole entry) above
T4 sequence (P30989 whole entry): as above
T1 sequence (P14416 1-414 isoform P14416-2): as the sequence (P14416 1-414 isoform P14416-2) above
T1 sequence (P30989 whole entry): as the sequence (P30989 whole entry) above
T5 sequence (P14416 1-414 isoform P14416-2): as the sequence (P14416 1-414 isoform P14416-2) above
T9 sequence (P14416 1-414 isoform P14416-2 D80A): as the sequence (P14416 1-414 isoform P14416-2) above, with D80A counted along it
T9 sequence (P30989 whole entry): as the sequence (P30989 whole entry) above
T10 sequence (P14416 1-414 isoform P14416-2): as the sequence (P14416 1-414 isoform P14416-2) above
T2 sequence (P35462 whole entry): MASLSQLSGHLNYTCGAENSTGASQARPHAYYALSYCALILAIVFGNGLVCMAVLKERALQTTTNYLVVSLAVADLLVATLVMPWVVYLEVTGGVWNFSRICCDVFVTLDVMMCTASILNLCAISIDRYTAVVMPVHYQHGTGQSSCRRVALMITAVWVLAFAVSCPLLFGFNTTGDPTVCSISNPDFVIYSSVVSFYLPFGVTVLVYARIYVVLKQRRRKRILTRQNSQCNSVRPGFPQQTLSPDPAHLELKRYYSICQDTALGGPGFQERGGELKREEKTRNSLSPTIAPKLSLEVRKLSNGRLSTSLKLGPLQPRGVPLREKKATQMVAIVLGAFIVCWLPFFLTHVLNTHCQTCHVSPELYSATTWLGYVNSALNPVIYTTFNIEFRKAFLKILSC
T8 sequence (O95665 whole entry): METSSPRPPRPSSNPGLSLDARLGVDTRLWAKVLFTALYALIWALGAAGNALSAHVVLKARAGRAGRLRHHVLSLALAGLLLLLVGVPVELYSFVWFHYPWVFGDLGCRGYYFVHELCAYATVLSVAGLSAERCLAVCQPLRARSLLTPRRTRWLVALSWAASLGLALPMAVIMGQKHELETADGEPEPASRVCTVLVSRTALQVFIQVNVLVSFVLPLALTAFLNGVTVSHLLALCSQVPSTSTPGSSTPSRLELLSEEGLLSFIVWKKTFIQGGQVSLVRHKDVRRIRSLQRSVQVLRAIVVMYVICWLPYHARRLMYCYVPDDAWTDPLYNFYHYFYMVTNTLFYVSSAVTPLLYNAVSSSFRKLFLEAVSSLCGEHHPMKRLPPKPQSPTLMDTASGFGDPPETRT
T6 sequence (P14416 whole entry): as the sequence (P14416 whole entry) above
T7 sequence (P14416 whole entry): as above
T3 sequence (P14416 1-414 isoform P14416-2): as the sequence (P14416 1-414 isoform P14416-2) above

Emax (D2SR/NTS1R): -63 ± 2%
EC50 (D2SR/NTS1R; read-out: EC50 D2SR/NTS1R, cAMP accumulation): 3.5 ± 1.4 nM
Ki (hD3R): 0.53 ± 0.25 nM
Ki (hD2SR): 3.3 ± 0.8 nM
receptor activation (cAMP), cells monoexpressing NTS1R (in words) (NTS1R [1]; 10 μM forskolin): caused no effect
cAMP response, cells expressing NTS1R only, absence of FSK (in words) (NTS1R [1]; no forskolin): do not elicit any response
Emax (D2SR; HEK-293T, read-out: Effect (Emax) D2SR, cAMP accumulation): -65 ± 1%
EC50 (D2SR; read-out: EC50 D2SR, cAMP accumulation): 2.8 ± 0.4 nM
Ki (hD2LR): 7.6 ± 1.7 nM
Ki (NTS1R [2]): 180 ± 40 nM
Ki (human D2LR): 21 ± 4 nM
Ki (hNTS2R): 300 ± 250 nM
inhibition of cAMP accumulation, D2R (D80A)/NTS1R (in words) (D2R_D80A/NTS1R [3]): unable to inhibit cAMP accumulation
SMILES: CCCN(CCCCc1cn(-c2ccc(-c3ccc(C(=O)NCCOC)cc3)cc2)nn1)C1Cc2ccccc2C1 [3g]

SMILES: CC[C@H](C)[C@H](NC(=O)[C@H](Cc1ccc(O)cc1)NC(=O)[C@@H]1CCCN1C(=O)[C@H](CCCNC(=N)N)NC(=O)[C@H](CCCNC(=N)N)NC(=O)CCOCCOCCOCCOCCOCCOCCNC(=O)CCOCCOCCOCCOCCOCCOCCNC(=O)c1ccc(-c2ccc(-n3cc(CCCCN4CCN(c5ccccc5OC)CC4)nn3)cc2)cc1)C(=O)N[C@@H](CC(C)C)C(=O)O [2b]
Emax (D2SR/NTS1R): 31 ± 3%
change of cAMP levels in the absence of forskolin (D2SR/NTS1R; no forskolin, vehicle 0 %, maximum effect of NT(8-13) 100 %): 83%
Ki (hD3R): 5.5 ± 0.9 nM
concentration of maximum effect (bell-shaped curve), D2R_D80A/NTS1R (D2R_D80A/NTS1R [4]): 300 nM
antagonist behaviour at D2R (in words) (D2R): neutral antagonists; also recorded: fully inhibit the effect of 10 nM quinpirole
effect on forskolin-induced cAMP accumulation, cells expressing D2R only (in words) (D2SR; 10 μM forskolin): remained without significant effects
preference for the high- over the low-affinity binding site in the presence of GppNHp (D2LR/NTS1R; 100 μM GppNHp): 330 fold
Fraction high (fraction representing the high-affinity binding site) (D2LR/NTS1R; D2LR:NTS1R 1:2, mean ± s.e.m.): 55 ± 3%
high affinity binding sites (fraction) (D2LR/NTS1R; D2R/NTS1R = 2:1): 49 ± 3%
high affinity binding sites (fraction) (D2LR/NTS1R; D2R/NTS1R = 3:1): 30 ± 3%
fraction high +GppNHp (D2LR/NTS1R; in presence of 100 μM GppNHp): 46 ± 3%
Ki (hD4.4R): 180 ± 20 nM
concentration of maximum β-arrestin-2 recruitment (bell-shaped curve) (D2R/NTS1R): 300 nM

Source: publication PMC4963535, “Structure-guided development of heterodimer-selective GPCR ligands” (Nature Communications, 2016)
